The text below walks through data of patent US20250289799A1, “PYRIMIDINE COMPOUND, METHOD FOR PREPARING SAME, AND PHARMACEUTICAL USE THEREOF” (JIANGSU YAHONG MEDITECH CO., LTD., priority 2022, published 2025).

The subject of one experiment is MDA-MB-436. Kind of experiment: CTG experiment on cell activity (CellTiter-Glo, 7 days). Format: cell-based. The conditions noted are these: Homo sapiens, 168 h, MDA-MB-436 cells, cultured for 7 days. The protocol:
• 1. Object: USP1 inhibitors were screened on 96-well plate by CTG assay. • 2. Materials: • The cells used were MDA-MB-436 (manufacturer: Nanjing Cobioer Biotechnology Co., Ltd.), and the culture medium was DMEM. • CTG (CellTiter-Glo® Luminescent Cell Viability Assay kit) (Promega, Catalog No.: G7572) • 96-well plate (Corning, Catalog No.: 3610) • 3. Compounds: • All compounds were dissolved in 100% DMSO to obtain 50 mM stock solutions. • 4. Experimental methods:
The cells to be tested were spread into a 96-well plate at a certain density at 200 μL per well, and 200 μL of cell culture medium was added to the blank well. The spread cell plate was placed in a 37° C. incubator.
The compound was diluted to different concentrations with 100% DMSO, and the final concentration of DMSO was 4%.
The compound formulated in (2) was added to the cell plate of (1) (10 μL per well). The cell plate with the compound added was placed in a 37° C. incubator, and cultured for 7 days before assay.
The substrate and buffer of the CTG kit were mixed evenly. The cell plate with the compound added in (3) was taken out from the incubator, and placed at room temperature for 30 minutes. The compound-containing culture medium in the cell plate was removed, 100 μL of PBS and 50 μL of CTG reagent were added to each well. The mixture in each well was mixed and shaked for 3 minutes, and then incubated at room temperature for 10 minutes. The plate was read by BIotek microplate reader, and the parameter was 567 CPM. • 5. Curve fitting • Same as enzyme assay.
Regarding `CC(C)c1ccccc1-c1nc(NCc2ccc3c(c2)CCN(C(C)C)C3=O)c2occc2n1` [Example 78, 2-Isopropyl-6-(((2-(2-isopropylphenyl)furo[3,2-d]pyrimidin-4-yl)amino)methyl)-3,4-dihydroisoquinolin-1(2H)-one], the IC50 is over 5000 nM. Still for that read-out and setting: then `COc1ncnc(C2CC2)c1-c1nc(NCc2ccc3c(c2)CCN(C(C)C)C3=O)c2occc2n1` [Example 115, 6-(((2-(4-Cyclopropyl-6-methoxypyrimidin-5-yl)furo[3,2-d]pyrimidin-4-yl)amino)methyl)-2-isopropyl-3,4-dihydroisoquinolin-1(2H)-one], with 1610 nM; and `COc1cnc(-c2ccccc2C(C)C)nc1NCC1CCC(c2nc(C(F)(F)F)cn2C)CC1` [Compound 6, 2-(2-Isopropylphenyl)-5-methoxy-N-(((1R,4R)-4-(1-methyl-4-(trifluoromethyl)-1H-imidazol-2-yl)cyclohexyl)methyl)pyrimidin-4-amine], with 2 nM; and `COc1ncnc(C2CC2)c1-c1nc(NCc2ccc(OC3CC(OC)C3)cc2)c2occc2n1` (centres unmarked) [Example 118, 2-(4-Cyclopropyl-6-methoxypyrimidin-5-yl)-N-(4-(3-methoxycyclobutoxy)benzyl)furo[3,2-d]pyrimidin-4-amine], with 1490 nM. The compound `COc1ncnc(C2CC2)c1-c1nc(NCc2ccc(-c3ccccn3)cc2)c2[nH]ccc2n1` [Example 37, 2-(4-Cyclopropyl-6-methoxypyrimidin-5-yl)-N-(4-(pyridin-2-yl)benzyl)-5H-pyrrolo[3,2-d]pyrimidin-4-amine] returned an IC50 of over 5000 nM.

For `CCOCCOc1ccc(CNc2nc(-c3ccccc3C(C)C)nc3ccoc23)cc1` [Example 79, N-(4-(2-Ethoxyethoxy)benzyl)-2-(2-isopropylphenyl)furo[3,2-d]pyrimidin-4-amine], the IC50 was 1210 nM. `CC(C)c1ccccc1-c1nc(NCc2ccc3c(c2)CCN(C)C3=O)c2occc2n1` [Example 77, 6-(((2-(2-Isopropylphenyl)furo[3,2-d]pyrimidin-4-yl)amino)methyl)-2-methyl-3,4-dihydroisoquinolin-1(2H)-one] gave an IC50 of 1800 nM.

In the case of `CC(C)c1ccccc1-c1ncc(N2CCOCC2)c(NCc2ccc(-c3nc(C(F)(F)F)cn3C)cc2)n1` [Example 87, 2-(2-Isopropylphenyl)-N-(4-(1-methyl-4-(trifluoromethyl)-1H-imidazol-2-yl)benzyl)-5-morpholinopyrimidin-4-amine], the IC50 stood at 2650 nM. In turn, `COc1cnc(-c2cccc3ccn(C)c23)nc1NCc1ccc(-c2nc(C(F)(F)F)cn2C)cc1` [Example 143, 5-Methoxy-2-(1-methyl-1H-indol-7-yl)-N-(4-(1-methyl-4-(trifluoromethyl)-1H-imidazol-2-yl)benzyl)pyrimidin-4-amine] returned an IC50 of 1440 nM.

`COc1ncnc(C2CC2)c1-c1ncc2c(n1)N(CC1CCC(c3nc(C(F)(F)F)cn3C)CC1)CCO2` (centres unmarked) [Compound 22, 2-(4-Cyclopropyl-6-methoxypyrimidin-5-y1)-8-(((1r,4r)-4-(1-methyl-4-(trifluoromethyl)-1H-imidazol-2-yl)cyclohexyl)methyl)-7,8-dihydro-6H-pyrimido[5,4-b][1,4]oxazine] showed an IC50 of 209 nM. On the same count and under the same terms, then `COc1ncnc(C2CC2)c1-c1nc(NCc2ccc3c(c2)CCN(C)C3=O)c2occc2n1` [Example 114, 6-(((2-(4-Cyclopropyl-6-methoxypyrimidin-5-yl)furo[3,2-d]pyrimidin-4-yl)amino)methyl)-2-methyl-3,4-dihydroisoquinolin-1(2H)-one], with over 5000 nM; and `COc1ncnc(C2CC2)c1-c1ncc(OC(C)C)c(NCC23CCC(c4ccc(C(F)(F)F)cn4)(CC2)CC3)n1` [Example 112, 4′-Cyclopropyl-5-isopropoxy-6′-methoxy-N-((4-(5-(trifluoromethyl)pyridin-2-yl)bicyclo[2.2.2]octan-1-yl)methyl)-[2,5′-bipyrimidin]-4-amine], with over 5000 nM. `COc1cnc(-c2cccc3ccn(C)c23)nc1NCc1ccc(-n2nc(C(F)(F)F)cc2C)cc1` [Example 144, 5-Methoxy-2-(1-methyl-1H-indol-7-yl)-N-(4-(5-methyl-3-(trifluoromethyl)-1H-pyrazol-1-yl)benzyl)pyrimidin-4-amine] came in with an IC50 of 1670 nM. Still for that read-out and setting: then `COc1cnc(-c2ccccc2C(C)C)nc1N(C)Cc1ccc(-c2ccccn2)cc1` [Compound 1, 2-(2-isopropylphenyl)-5-methoxy-N-methyl-N-(4-(pyridin-2-yl)benzyl)pyrimidin-4-amine], with 1270 nM; and `COc1cnc(-c2cccc3c2N(C)CC3)nc1NCc1ccc(-n2ncc(C(F)(F)F)c2C)cc1` [Example 146, 5-Methoxy-N-(4-(5-methyl-4-(trifluoromethyl)-1H-pyrazol-1-yl)benzyl)-2-(1-methylindolin-7-yl)pyrimidin-4-amine], with 1060 nM. For `COc1cnc(-c2ccccc2C(C)C)nc1NCc1ccc(OCc2ccccn2)cc1` [Example 67, 2-(2-Isopropylphenyl)-5-methoxy-N-(4-(pyridin-2-ylmethoxy)benzyl)pyrimidin-4-amine], the IC50 stood at 1170 nM. Still for that read-out and setting: the value for `COC1CC(Oc2ccc(CNc3nc(-c4ccccc4C(C)C)nc4ccoc34)cc2)C1` (centres unmarked) [Example 80, 2-(2-Isopropylphenyl)-N-(4-(3-methoxycyclobutoxy)benzyl)furo[3,2-d]pyrimidin-4-amine] was over 5000 nM.

Staying with this experiment, now noted: MDA-MB-436 cells, cultured for 7 days.
Take `COc1cnc(-c2c(OC)ncnc2C2CC2)nc1NCC12C3C4C1C1C2C3C41c1nc(C(F)(F)F)cn1C` (centres unmarked) [Example 215]: the IC50 stood at 8.7 nM.

The target of a further experiment is Recombinant human His6-USP1/His6-UAF1 complex protein (Homo sapiens (Human), UniProt O94782). Put plainly: In vitro , fluorescence detection with Ub-Rho substrate. Format: biochemical.
Recombinant human His6-USP1/His6-UAF1 complex protein, sequence (O94782 whole entry): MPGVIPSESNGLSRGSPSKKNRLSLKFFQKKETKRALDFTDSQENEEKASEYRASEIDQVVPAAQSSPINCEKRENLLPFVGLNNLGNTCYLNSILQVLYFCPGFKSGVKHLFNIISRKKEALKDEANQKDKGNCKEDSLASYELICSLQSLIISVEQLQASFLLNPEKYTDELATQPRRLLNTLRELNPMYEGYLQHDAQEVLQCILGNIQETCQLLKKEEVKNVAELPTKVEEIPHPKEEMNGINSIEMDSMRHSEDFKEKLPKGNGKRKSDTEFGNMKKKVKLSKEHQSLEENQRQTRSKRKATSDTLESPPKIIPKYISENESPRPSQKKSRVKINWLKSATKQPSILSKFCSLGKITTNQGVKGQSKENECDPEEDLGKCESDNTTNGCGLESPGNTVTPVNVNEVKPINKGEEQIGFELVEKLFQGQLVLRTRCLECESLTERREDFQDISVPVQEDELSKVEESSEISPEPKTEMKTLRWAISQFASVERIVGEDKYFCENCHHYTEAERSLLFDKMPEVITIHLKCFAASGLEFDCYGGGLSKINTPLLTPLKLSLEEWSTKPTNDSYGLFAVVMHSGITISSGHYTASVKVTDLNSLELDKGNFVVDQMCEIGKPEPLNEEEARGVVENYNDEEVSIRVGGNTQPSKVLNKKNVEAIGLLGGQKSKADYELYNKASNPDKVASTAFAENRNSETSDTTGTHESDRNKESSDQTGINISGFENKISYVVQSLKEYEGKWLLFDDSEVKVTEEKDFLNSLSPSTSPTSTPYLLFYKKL
Recombinant human His6-USP1/His6-UAF1 complex protein, sequence (Q8TAF3 whole entry partner): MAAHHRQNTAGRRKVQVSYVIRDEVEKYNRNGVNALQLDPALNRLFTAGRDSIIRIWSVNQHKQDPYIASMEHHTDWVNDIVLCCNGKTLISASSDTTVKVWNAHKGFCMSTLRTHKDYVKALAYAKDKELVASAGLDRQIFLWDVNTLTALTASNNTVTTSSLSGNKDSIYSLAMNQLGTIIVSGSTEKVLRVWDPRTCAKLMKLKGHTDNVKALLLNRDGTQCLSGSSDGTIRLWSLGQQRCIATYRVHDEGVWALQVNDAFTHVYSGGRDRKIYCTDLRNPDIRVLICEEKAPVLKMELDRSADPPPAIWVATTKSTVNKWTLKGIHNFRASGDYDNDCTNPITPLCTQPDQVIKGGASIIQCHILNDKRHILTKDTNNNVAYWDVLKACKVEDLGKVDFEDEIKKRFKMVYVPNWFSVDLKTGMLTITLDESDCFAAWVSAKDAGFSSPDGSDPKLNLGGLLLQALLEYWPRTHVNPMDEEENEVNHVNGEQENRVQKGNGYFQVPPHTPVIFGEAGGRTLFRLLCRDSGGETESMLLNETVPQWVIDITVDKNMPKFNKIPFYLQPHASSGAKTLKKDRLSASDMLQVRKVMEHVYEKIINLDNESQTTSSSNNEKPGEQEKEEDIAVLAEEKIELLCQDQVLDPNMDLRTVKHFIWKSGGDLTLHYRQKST
Settings: not given
The protocol:
Experimental object: The USP1 […] inhibitory activity of the compounds was screened by fluorescence detection method using 384-well plates.
Experimental materials: Recombinant human His6-USP1/His6-UAF1 complex protein (R&D, Catalog No.: E-568-050), ubiquitin rhodamine 110 protein (Ub-Rho) (R&D, Catalog No.: U-555-050), 384-well plate (Perkin Elmer, Catalog No.: 6007279); all compounds were dissolved in 100% DMSO to obtain a 50 mM stock solution.
• 1) Preparation of 1× assay buffer: 1× assay buffer (modified Tris buffer) was prepared; • 2) Compound dilution: The compound was transferred to the assay plate by Echo. The final concentration of DMSO is 1%; • 3) Preparation of enzyme solution: Recombinant human His6-USP1/His6-UAF1 complex protein was added to 1× assay buffer to obtain an enzyme solution; • 4) Preparation of substrate solution: Ubiquitin rhodamine 110 protein CF (Ub-Rho) was added to 1× assay buffer to obtain a substrate solution; • 5) 10 μL enzyme solution was transferred to the assay plate, and 10 μL 1× assay buffer was added to the control well; • 6) The plate was incubated at room temperature for 1 hour; • 7) 10 μL substrate solution was added to each well to start the reaction, and the plate was centrifuged for 30 seconds, and shaked for 30 seconds; • 8) The plate was read with Envision after 30 minutes, and the parameters were excitation light 480 nm and emission light 540 nm; • 9) The data was collected and summarized; • 10) Curve fitting: The data was fitted in Excel, Inhibition rate formula: Percent inhibition rate=(maximum value−signal value)/(maximum value−minimum value)×100; the data was fitted in XL-Fit, • Half inhibition concentration formula: Percent inhibition rate=minimum concentration+(maximum concentration−minimum concentration)/(1+(half inhibition concentration/compound concentration)^slope); • Half inhibition concentration is referred to as IC50 hereinafter.
`CC(C)c1ccccc1-c1ncc2c(n1)N(C[C@H]1CC[C@@H](c3nc(C(F)(F)F)cn3C)CC1)CCO2` [Compound 14, 2-(2-Isopropylphenyl)-8-(((1s,4s)-4-(1-methyl-4-(trifluoromethyl)-1H-imidazol-2-yl)cyclohexyl)methyl)-7,8-dihydro-6H-pyrimido[5,4-b][1,4]oxazine]: the IC50 came out at 60 nM. On the same count and under the same terms, the value for `COc1ncnc(C2CC2)c1-c1nc(NCc2ccc(-c3ccccn3)cc2)c2occc2n1` [Example 34, 2-(4-Cyclopropyl-6-methoxypyrimidin-5-y1)-N-(4-(pyridin-2-yl)benzyl)furo[3,2-d]pyrimidin-4-amine] was 6.9 nM; that for `COc1cnc(-c2c(C)ncn2C(C)C)nc1NCC12CCC(c3ccc(C(F)(F)F)cn3)(CC1)CC2` [Example 148, 2-(1-Isopropyl-4-methyl-1H-imidazol-5-yl)-5-methoxy-N-((4-(5-(trifluoromethyl)pyridin-2-yl)bicyclo[2.2.2]octan-1-yl)methyl)pyrimidin-4-amine] was 1050 nM.

Turning to `COc1cnc(-c2c(OC)ncnc2C2CC2)nc1NCC12C3C4C1C1C2C3C41c1nc(C(F)(F)F)cn1C` (centres unmarked) [Example 215], the IC50 was 2.2 nM. On the same count and under the same terms, the value for `CC(C)c1ccccc1-c1ncc2c(n1)N(C[C@H]1CC[C@H](c3nc(C(F)(F)F)cn3C)CC1)CCO2` [Compound 13, 2-(2-Isopropylphenyl)-8-(((1R,4R)-4-(1-methyl-4-(trifluoromethyl)-1H-imidazol-2-yl)cyclohexyl)methyl)-7,8-dihydro-6H-pyrimido[5,4-b][1,4]oxazine] was 1.9 nM.
